pIC50: −log10 of the molar value.
Target: T1, Gamma secretase (Homo sapiens, UniProt P49768)
T1 construct: endogenous in cells; host or cells: 293 cells (T-REx, clone pTRE.15), salt-washed membrane preparation; only the substrate SPC99-Lon is transfected
Assay: Gamma secretase activity assay (membranes of C99-expressing 293 cells, Aβ 40/Aβ 42 ECL immunoassay)
Assay type: biochemical
Conditions: membranes incubated at 37 C for 1 h; Aβ 40 and Aβ 42 measured by ECL immunoassay; read-out: IC50 (concentration of compound producing 50% inhibition of enzyme activity)
Experimental: Gamma secretase activity was determined as described by Zhang et a. (Biochemistry, 40 (16), 5049-5055, 2001). Activity is expressed either as a percent inhibition or as the concentration of compound producing 50% inhibition of enzyme activity.
Reagents. Antibodies W02, G2-10, and G2-11 were obtained from Dr. Konrad Beyreuther (University of Heidelberg, Heidelberg, Germany). W02 recognizes residues 5-8 of A peptide, while G2-10 and G2-11 recognize the specific C-terminal structure of A 40 and A 42, respectively. Biotin-4G8 was purchased from Senetec (St. Louis, Mo.). All tissue culture reagents used in this work were from Life Technologies, Inc., unless otherwise specified. Pepstatin A was purchased from Roche Molecular Biochemicals; DFK167 was from Enzyme Systems Products (Livermore, Calif.).
cDNA Constructs, Tissue Culture, and Cell Line Construction. The construct SPC99-Lon, which contains the first 18 residues and the C-terminal 99 amino acids of APP carrying the London mutation, has been described (Zhang, L., Song, L., and Parker, E. (1999) J. Biol. Chem. 274, 8966-8972). Upon insertion into the membrane, the 17 amino acid signal peptide is processed, leaving an additional leucine at the N-terminus of A. SPC99-Ion was cloned into the pcDNA4/TO vector (Invitrogen) and transfected into 293 cells stably transfected with pcDNA6/TR, which is provided in the T-REx system (Invitrogen). The transfected cells were selected in Dulbecco's modified Eagle's media (DMEM) supplemented with 10% fetal bovine serum, 100 units/mL penicillin, 100 µg/mL streptomycin, 250 µg/mL zeocin, and 5 µg/mL blasticidin (Invitrogen). Colonies were screened for A production by inducing C99 expression with […] tetracycline for 16-20 h and analyzing conditioned media with a sandwich immunoassay (see below). One of the clones, designated as pTRE.15, was used in these studies.
Membrane Preparation. C99 expression in cells was induced with […] tetracycline for 20 h. The cells were pretreated with […] 12-myristate 13-acetate (PMA) and […] brefeldin A (BFA) for 5-6 h at 37 C before harvesting. The cells were washed 3 times with cold phosphate-buffered saline (PBS) and harvested in buffer A containing 20 mM Hepes (pH 7.5), 250 mM sucrose, 50 mM KCl, 2 mM EDTA, 2 mM EGTA, and Complete protease inhibitor tablets (Roche Molecular Biochemicals). The cell pellets were flash-frozen in liquid nitrogen and stored at −70 C. before use.
To make membranes, the cells were resuspended in buffer A and lysed in a nitrogen bomb at 600 psi. The cell lysate was centrifuged at 1500 g for 10 min to remove nuclei and large cell debris. The supernatant was centrifuged at 100000 g for 1 h. The membrane pellet was resuspended in buffer A plus 0.5 M NaCl, and the membranes were collected by centrifugation at 200000 g for 1 h. The salt-washed membrane pellet was washed again in buffer A and centrifuged at 100000 g for 1 h. The final membrane pellet was resuspended in a small volume of buffer A using a Teflon-glass homogenizer. The protein concentration was determined, and membrane aliquots were flash-frozen in liquid nitrogen and stored at −70 C.
-Secretase Reaction and A Analysis. To measure -secretase activity, membranes were incubated at 37 C for 1 h in 50 L of buffer containing 20 mM Hepes (pH 7.0) and 2 mM EDTA. At the end of the incubation, Aβ 40 and Aβ 42 were measured using an electrochemiluminescence (ECL)-based immunoassay. Aβ 40 was identified with antibody pairs TAG-G2-10 and biotin-W02, while A 42 was identified with TAG-G2-11 and biotin-4G8. The ECL signal was measured using an ECL-M8 instrument (IGEN International, Inc.) according to the manufacturer's instructions. The data presented were the means of the duplicate or triplicate measurements in each experiment. The characteristics of -secretase activity described were confirmed using more than five independent membrane preparations.

Structure (SMILES)	pIC50
COC(=O)c1ccc(CN(C2CCCN(C(=O)OC(C)(C)C)C2)S(=O)(=O)c2ccc(C(F)(F)F)cc2)cc1 (centres unmarked) [Example 14]	6.46 to 7.55
COC(=O)c1ccc(CN(C2CCCN(C(=O)OC(C)(C)C)C2)S(=O)(=O)c2ccc(OC(F)(F)F)cc2)cc1 (centres unmarked) [Example 16]	6.46 to 7.55
COC(=O)c1ccc(CN(C2CCCN(C(=O)OC(C)(C)C)C2)S(=O)(=O)c2ccc([N+](=O)[O-])cc2)cc1 (centres unmarked) [Example 17]	6.46 to 7.55
COC(=O)c1ccc(CN(C2CCCN(C(=O)OC(C)(C)C)C2)S(=O)(=O)c2ccc(C#N)cc2)cc1 (centres unmarked) [Example 18]	6.46 to 7.55
COC(=O)c1ccc(CN(C2CCCN(C(=O)OC(C)(C)C)C2)S(=O)(=O)c2ccc(-c3ccccc3)cc2)cc1 (centres unmarked) [Example 20]	6.46 to 7.55
COC(=O)c1ccc(CN(C2CCCN(C(=O)Cc3cccnc3)C2)S(=O)(=O)c2ccc(Cl)cc2)cc1 (centres unmarked) [Example 56]	6.46 to 7.55
COC(=O)c1ccc(CN(C2CCCN(C(=O)Cc3ccccc3)C2)S(=O)(=O)c2ccc(Cl)cc2)cc1 (centres unmarked) [Example 62]	6.46 to 7.55
COC(=O)c1ccc(CN(C2CCCN(C(=O)C(C)C)C2)S(=O)(=O)c2ccc(OC)cc2)cc1 (centres unmarked) [Example 68]	6.46 to 7.55
COC(=O)c1ccc(CN(C2CCCN(C(=O)Cc3cc(F)cc(F)c3)C2)S(=O)(=O)c2ccc(C(F)(F)F)cc2)cc1 (centres unmarked) [Example 79]	6.46 to 7.55
CC1COCC(C)N1C(=O)N1CCCC(N(c2cc(F)ccc2F)S(=O)(=O)c2ccc(Cl)cc2)C1 (centres unmarked) [Example 161]	6.46 to 7.55

The next lines start with the values.

pIC50	Structure (SMILES)
6.46 to 7.55	CC1CCCCN1C(=O)N1CCCC(N(c2cc(F)ccc2F)S(=O)(=O)c2ccc(Cl)cc2)C1 (centres unmarked) [Example 162]
6.46 to 7.55	CN1CCN(C(=O)N2CCCC(N(c3cc(F)ccc3F)S(=O)(=O)c3ccc(Cl)cc3)C2)CC1 (centres unmarked) [Example 180]
6.46 to 7.55	O=C(N1CCN(CCOCCO)CC1)N1CCCC(N(c2cc(F)ccc2F)S(=O)(=O)c2ccc(Cl)cc2)C1 (centres unmarked) [Example 181]
6.46 to 7.55	O=C(N1CCN(CCO)CC1)N1CCCC(N(c2cc(F)ccc2F)S(=O)(=O)c2ccc(Cl)cc2)C1 (centres unmarked) [Example 182]
6.46 to 7.55	O=C(N1CCCC(N(c2cc(F)ccc2F)S(=O)(=O)c2ccc(Cl)cc2)C1)N1CCCCC1CO (centres unmarked) [Example 192]
6.46 to 7.55	CN(C)CC1CCCCN1C(=O)N1CCC[C@H](N(c2cc(F)ccc2F)S(=O)(=O)c2ccc(Cl)cc2)C1 (some centres unmarked) [Example 213]
6.46 to 7.55	C[C@@H]1CN(C(=O)OC(C)(C)C)CCN1C(=O)N1CCC[C@H](N(c2cc(F)ccc2F)S(=O)(=O)c2ccc(Cl)cc2)C1 [Example 214]

Reference: patent publication US7122675B2, “Gamma secretase inhibitors” (Schering Corporation, priority 2001, dated 2006)
